Reference: US20190358198A1, “USE OF OVATODIOLIDE FOR PREPARING A COMPOSITION FOR INHIBITING PROTEIN SYNTHESIS OF GASTRIC HELICOBACTER PYPORI” (Syi Biotechnology Co.,Ltd., priority 2018, published 2019)
Converted amounts (≈) assume the structure as drawn.

Experiments:
[1] = test system: protein RpsB in 30S ribosomal subunit; assay: Western blot analysis of RpsB content in Helicobacter pylori lysates; assay type: cell-based; settings: H. pylori cultivated with ovatodiolide of different concentrations for 6 hours; FIG. 2
Protocol: In this embodiment, the process of protein translation has three steps, namely, initiation, elongation and termination of ribosomes. In order to further analyze whether ovatodiolide is effected on ribosomes causing protein synthesis unable to proceed smoothly, western blot analysis is used to determine the content of protein RpsB in 30S ribosomal subunit. Helicobacter pylori is cultivated with ovatodiolide of different concentrations for 6 hours, and extract total cell lysates. Separate total cell lysates by using 10% SDS-PAGE, transfer protein using PVDF membrane, and carry out hybridization with protein using RpsB antibody. Then, detect RpsB antibody using anti-rabbit antibody; finally, a chromogenic reagent is added, and observe results by using the apparatus Azure C400 Biosystems.
FIG. 2 is an expression of 30S ribosomal subunits RpsB analyzed by using western blot analysis. Wherein kanamycin (400 μM) and erythromycin (400 μM) are used as control groups.

[2] = test system: Helicobacter pylori type strain (H. pylori 26695); assay: Minimum bacteriostatic concentration by agar-well diffusion (inhibitory rings); assay type: cell-based; settings: for Inhibitory rings: cultivated two days
Protocol: Different concentrations of ovatodiolide disks are used to cultivate with Helicobacter pylori for two days respectively. Then, the minimum concentrations for inhibiting Helicobacter pylori are determined by using agar-well diffusion. The results are used for analyzing the minimum concentration of ovatodiolide for inhibiting the growth of Helicobacter pylori type strain (H. pylori 26695). […] Based on the experimental results, 10 μM and 20 μM of ovatodiolide have inhibitory rings; the diameters of the inhibitory rings are 10±0.5 mm and 19±0 mm respectively. This proves that the minimum bacteriostatic concentration of ovatodiolide for inhibiting Helicobacter pylori is 10 μM.

[3] = test system: extracts of Escherichia coli (E. coli S30); assay: In vitro transcription/translation system with pGL3 luciferase readout; assay type: biochemical; settings: 10 μM; FIG. 1
Protocol: The structure of ovatodiolide is similar to that of the medicines in antibiotics for inhibiting protein generation. In order to understand whether the mechanism of ovatodiolide for inhibiting Helicobacter Pylori is related to protein synthesis, let ovatodiolide and extracts of Escherichia coli (E. coli S30) to take effect for 10 minutes by using in vitro transcription/translation systems. Then, pGL3 luciferase is added for carrying out transcription and translation reaction for 2 hours. Finally, the reacted sample is added with luciferin for it to present color by using Dual-Luciferase Reporter Assay System. Then, microplate luminometer is used to determine the […] in order to find out whether ovatodiolide can inhibit protein synthesis.
Among them, inhibition of 30S subunit using kanamycin and inhibition of […] using erythromycin are used as control groups.

[4] = test system: Hp v633; assay: Minimum bactericidal concentration, serial dilution and spread plate method; assay type: cell-based, Helicobacter pylori; settings: cultivated six hours; multidrug-resistant strain v633
Protocol: (§1) Different concentrations of ovatodiolide are prepared by using serial dilution method, and Helicobacter pylori type strain and multidrug-resistant gastric Helicobacter pylori (v633, v1354) separated from laboratory are cultivated for six hours respectively. Then, ovatodiolide is analyzed by using spread plate method to observe the number of colony growth, and analyze the minimum bactericidal concentrations of ovatodiolide for completely killing Helicobacter pylori type strain and multidrug-resistant strains. Based on the results on Table 2, the minimum bactericidal concentration of ovatodiolide for Helicobacter pylori type strain is 200 μM, and the minimum bactericidal concentrations for multidrug-resistant strains v633 and v1354 are 100 μM.

[5] = test system: Hp v1354; assay: as above; assay type: cell-based, Helicobacter pylori; settings: cultivated six hours; multidrug-resistant strain v1354
Protocol: as §1

[6] = test system: Hp reference strain 26695; assay: as above; assay type: cell-based, Helicobacter pylori; settings: cultivated six hours; type strain 26695
Protocol: as §1

C=C1C(=O)O[C@@H]2/C=C(\C)C[C@H]3C=C(CC/C=C(\C)CC[C@@H]12)C(=O)O3 [ovatodiolide]
expression of protein RpsB [1]: reduces significantly | minimum bacteriostatic concentration ([2]; agar-well diffusion, H. pylori 26695): 10 µM | Inhibitory rings ([2]; ovatodiolide 10 μM): 10±0.5 mm | Inhibitory rings ([2]; ovatodiolide 20 μM): 19±0 mm | inhibition of protein synthesis [3]: more than 50% | Minimum bactericidal concentration [4]: 100 µM (≈ 32.8 µg/mL) | Minimum bactericidal concentration [5]: 100 µM (≈ 32.8 µg/mL) | Minimum bactericidal concentration [6]: 200 µM (≈ 65.7 µg/mL)
